# Values joined by “and” are separate entries in the source; they are usually repeats but may differ in a detail not shown here. Identical values can stand only once.
# Key:
# [1] = tested on: L. blandensis RNR (wild-type NrdB or NrdB∆99); experiment: Metal-dependency of enzyme activity; type: biochemical, Leeuwenhoekiella blandensis; settings: metal added to cultures or 20 µM divalent metal ions to 10 µM NrdB
# Protocol: Overnight cultures of E. coli BL21(DE3)/pET28a(+) bearing pET-nrdA, pET-nrdB and pET-nrdB∆99 were diluted to an absorbance at 600 nm of 0.1 in LB (Luria-Bertani) liquid medium, containing kanamycin (50 μg/ml) and shaken vigorously at 37°C. At an absorbance at 600 nm of 0.8, isopropyl-β-D-thiogalactopyranoside (Sigma) was added to a final concentration of 0.01 mM for NrdA expression and 0.5 mM for NrdB and NrdB∆99 expression. For particular experiments, 0.5 mM MnSO4 or 0.5 mM FeNH4(SO4)2 or the combination of both metals (0.4 mM and 0.25 mM respectively) were added to NrdB∆99 cultures. The cells were grown overnight at 14°C for NrdA expression and 20°C for NrdB and NrdB∆99 expression and harvested by centrifugation.
# Enzyme assays were performed at room temperature in 50 mM Tris-HCl at pH 8 in volumes of 50 μl. Reaction conditions, giving maximal activity were determined experimentally. […] Mixtures of 0.5 μM NrdA and 2 μM wild type NrdB or NrdB∆99 (for determination of s-site KL) (Figure 3a–b) or 0.5 μM of NrdB and 2 uM NrdA (for determination of a-site KL), (Figure 3c–f) were used. Some components were explicitly varied in specific experiments. Generally, 0.8 mM CDP was used as substrate. […] When dTTP was used as an s-site effector, 0.5 mM or 0.8 mM GDP was used as substrate. […]
# NrdB [2] = biological target: T1, NrdB (Leeuwenhoekiella blandensis, UniProt A3XHF9); experiment: Isothermal titration calorimetry (ITC), nucleotide binding to NrdB
# Protocol: Isothermal titration calorimetry (ITC) experiments were carried out on a MicroCal PEAQ-ITC system (Malvern Instruments Ltd) in a buffer containing 25 mM HEPES (pH 7.65), 150 mM NaCl, and 10% glycerol, 2 mM tris(2-carboxyethyl)phosphine, and 5 mM MgCl2. Measurements were done at 10°C. The initial injection volume was 0.4 μl over a duration of 0.8 s. All subsequent injection volumes were 2–2.5 μl over 4–5 s with a spacing of 150 s between the injections. Data for the initial injection were not considered. For dATP binding analysis, the concentration of NrdB in the cell was 12 µM and dATP in syringe 120 or 140 µM. Reverse titrations were performed with 113 µM NrdB in the syringe and 12 or 30 µM dATP in the cell. For titration of dATP into NrdB∆99, protein concentration in the cell and dATP concentration in the syringe were 50 µM and 900 µM respectively. […] For titration of ATP into NrdB, cell and syringe concentrations were 50 and 1600 µM respectively. The data were analyzed using the built-in one set of sites model of the MicroCal PEAQ-ITC Analysis Software (Malvern Instruments Ltd). A fixed ligand/protein stoichiometry of 2 was used for dATP to NrdB titrations. Standard deviations in thermodynamic parameters, N and Kd were estimated from the fits of three different titrations.
# [3] = biological target: L. blandensis RNR, a-site (NrdB-linked ATP-cone) (Leeuwenhoekiella blandensis, UniProt A3XHF9); experiment: Enzyme activity assay with wild type NrdB (overall activity regulation, a-site); type: biochemical; settings: for interaction with the a-site (effect on GDP reduction): 2 mM nucleotide, s-site saturating dTTP (2 mM), 4 µM NrdA and 1 µM NrdB
# Protocol: (§1) Enzyme assays were performed at room temperature in 50 mM Tris-HCl at pH 8 in volumes of 50 μl. Reaction conditions, giving maximal activity were determined experimentally. […] Mixtures of 0.5 μM NrdA and 2 μM wild type NrdB or NrdB∆99 (for determination of s-site KL) (Figure 3a–b) or 0.5 μM of NrdB and 2 uM NrdA (for determination of a-site KL), (Figure 3c–f) were used. Some components were explicitly varied in specific experiments. Generally, 0.8 mM CDP was used as substrate. […] When dTTP was used as an s-site effector, 0.5 mM or 0.8 mM GDP was used as substrate. In four substrate assays, the four substrates CDP, ADP, GDP and UDP were simultaneously present in the mixture at concentrations of 0.5 mM each. The substrate mixture was added last to start the reactions. Certain assays were performed in the presence of Mn(CH3COO)2 or FeNH4(SO4): 20 μM of the indicated metal was added to 10 μM NrdB or NrdB∆99 protein, incubated for 10 min, mixed with NrdA and added to the reaction mixture.
# (§2) Enzyme reactions were incubated for 10–30 min and then stopped by the addition of methanol. The chosen incubation time gave a maximum substrate turnover of 30%. […] Compound identification was achieved by comparison with injected standards. Relative quantification was obtained by peak height measurements in the chromatogram (UV absorbance at 271 nm) in relation to standards. Specific activities of either NrdA (Figure 2a–b) or NrdB (Figure 2c–f) were determined. Specific activities varied between protein preparations. In some cases the data was standardized to activity percent, where 100% was determined as maximum enzyme activity in a specific condition.
# From a direct plot of activity versus concentration of effector, the KL values for binding of effectors to the s-site and the a-site, were calculated in SigmaPlot using the equation: V=Vmax×[dNTP]/(KL+[dNTP]) and Ki for non-competitive dATP inhibition at NrdB was calculated in Sigmaplot using the equation: V=Vmax/(1+[dNTP]/Ki)
# NrdB [4] = biological target: T1, NrdB; experiment: GEMMA analysis of NrdB oligomers; settings: 50 µM nucleotide, 0.1 mg/ml NrdB (~2 µM)
# Protocol: In GEMMA, biomolecules are electrosprayed into gas phase, neutralized to singly charged particles, and the gas phase electrophoretic mobility is measured with a differential mobility analyzer. The mobility of an analyzed particle is proportional to its diameter, which therefore allows for quantitative analysis of the different particle sizes contained in a sample ([Kaufman et al., 1996]). The GEMMA instrumental setup and general procedures were as described previously ([Rofougaran et al., 2008]). NrdA, NrdB and NrdB∆99 proteins were equilibrated by Sephadex G-25 chromatography into a buffer containing 100 mM ammonium acetate, pH 7.8. In addition, 2 mM DTT was added to the NrdA protein solutions to increase protein stability. Prior to GEMMA analysis, the protein samples were diluted to a concentration of 0.025–0.1 mg/ml in a buffer containing 20 mM ammonium acetate, pH 7.5, 0.005% (v/v) Tween 20, nucleotides (when indicated), and magnesium acetate (equimolar to the total nucleotide concentration), incubated for 5 min at room temperature, centrifuged and applied to the GEMMA instrument. Protein concentrations higher than normally recommended for GEMMA were needed to see the larger oligomeric complexes and the experiments to measure NrdA-NrdB interactions were run at as low flow rate as possible (driven by 1.4 Psi pressure) to minimize false interactions that may appear with elevated protein concentration if the flow-rate recommended by the manufacturer is used (3.7 Psi). Most of our experiments were performed with a flow rate driven by 2 Psi.
# [5] = tested on: L. blandensis class I RNR; experiment: Four-substrate activity assay, allosteric specificity regulation; type: biochemical, Leeuwenhoekiella blandensis; settings: all four substrates 0.5 mM each, effector 2 mM, 1 µM NrdB and 4 µM NrdA
# Protocol: as §1, §2
# T1 sequence (A3XHF9 entry or part of it): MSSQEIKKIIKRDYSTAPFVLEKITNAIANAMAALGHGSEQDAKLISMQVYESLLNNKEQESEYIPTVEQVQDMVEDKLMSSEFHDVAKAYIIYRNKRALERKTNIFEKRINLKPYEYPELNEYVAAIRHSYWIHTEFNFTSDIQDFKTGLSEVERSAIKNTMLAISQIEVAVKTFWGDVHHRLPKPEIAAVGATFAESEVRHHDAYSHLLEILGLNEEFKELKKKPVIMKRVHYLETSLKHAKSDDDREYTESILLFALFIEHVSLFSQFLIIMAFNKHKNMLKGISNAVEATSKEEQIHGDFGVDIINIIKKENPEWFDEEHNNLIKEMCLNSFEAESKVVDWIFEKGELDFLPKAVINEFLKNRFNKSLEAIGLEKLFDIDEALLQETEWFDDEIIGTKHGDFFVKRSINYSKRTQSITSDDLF
# Chain of L. blandensis RNR, a-site (NrdB-linked ATP-cone) (A3XHF8 entry or part of it): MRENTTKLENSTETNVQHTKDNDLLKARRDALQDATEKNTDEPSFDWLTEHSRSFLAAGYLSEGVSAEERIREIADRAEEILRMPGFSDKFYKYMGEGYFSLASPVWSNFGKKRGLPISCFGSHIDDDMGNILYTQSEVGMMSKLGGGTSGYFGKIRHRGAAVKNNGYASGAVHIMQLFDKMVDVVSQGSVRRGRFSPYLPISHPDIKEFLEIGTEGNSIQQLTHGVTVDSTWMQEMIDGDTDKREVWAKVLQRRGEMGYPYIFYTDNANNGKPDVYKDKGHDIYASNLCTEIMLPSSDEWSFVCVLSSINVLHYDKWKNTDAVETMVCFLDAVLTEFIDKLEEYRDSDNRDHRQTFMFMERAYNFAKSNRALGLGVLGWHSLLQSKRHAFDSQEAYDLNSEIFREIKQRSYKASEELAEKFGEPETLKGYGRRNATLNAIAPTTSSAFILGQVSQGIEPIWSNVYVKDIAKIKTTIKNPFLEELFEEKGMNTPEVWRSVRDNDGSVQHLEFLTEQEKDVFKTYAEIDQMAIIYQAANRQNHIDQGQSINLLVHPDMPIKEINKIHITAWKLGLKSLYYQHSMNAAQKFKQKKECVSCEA
# Chain of L. blandensis RNR, a-site (NrdB-linked ATP-cone) (A3XHF9 entry or part of it): as the sequence (A3XHF9 entry or part of it) above
compound,measurement,setting,value
"O=S(=O)([O-])[O-].O=S(=O)([O-])[O-].[Fe+2].[NH4+].[NH4+] [Fe^2+, FeNH4(SO4)]",effect of metal on catalytic activity,[1],inhibition
dADP,-TΔS,NrdB [2]; 10°C,18.4 ± 1.9 kcal/mol
same,ΔG,NrdB [2]; 10°C,-6.21 kcal/mol
same,ΔH,NrdB [2]; 10°C,-24.6 kcal/mol and -24.6 ± 2.2 kcal/mol
same,N (binding stoichiometry),"NrdB [2]; 10°C, per NrdB monomer, for dATP kept constant N = 2, 59% active protein",2.1 and 2.1 ± 0.2
same,lower affinity compared to dATP,"NrdB [2]; from Kd, ITC",15 fold
same,interaction with the a-site (effect on GDP reduction),[3],found to interact
same,effect of titration on enzyme activity,"[3]; CDP reduction (3 mM CDP), 2 µM NrdA and 0.5 µM NrdB","inhibited the enzyme activity, although less strongly than dATP"
same,effect on NrdB oligomer equilibrium,NrdB [4],"induced formation of NrdB tetramers, although less efficiently than with dATP"
"CC(=O)[O-].CC(=O)[O-].[Mn+2] [Mn, Mn(CH3COO)2]",effect of metal on catalytic activity,[1],increase in catalytic activity
Nc1ncnc2c1ncn2[C@H]1C[C@H](O)[C@@H](COP(=O)(O)O)O1 [dAMP],interaction with the a-site (effect on GDP reduction),[3],no effect
Cc1cn([C@H]2C[C@H](O)[C@@H](COP(=O)(O)OP(=O)(O)OP(=O)(O)O)O2)c(=O)[nH]c1=O [dTTP],effect of s-site effector on substrate reduction,[5],stimulated the reduction of GDP

# — publication PMC5794259, “Novel ATP-cone-driven allosteric regulation of ribonucleotide reductase via the radical-generating subunit” (eLife, 2018)
